Where a SMILES comes first, the peptide text is derived from it.
Tests used:
[1] = tested on: BMS cell growth; assay: Cytotoxicity assay for concentrations not affecting apparent BMS cell growth; type: cell-based, Zea mays
Method: (§1) To determine the effect of the flagellin peptide flg22 ([…] (SEQ ID NO: 14) (AnaSpec AS-62633) on PMP production by Zea mays BMS cells, 200 mL of BMS cell culture were prepared as described above. A cytotoxicity assay was carried out to determine the range of concentrations of flg22 that would not affect apparent BMS cell growth, and the flg22 concentration of 1 μM was determined to be compatible with cell growth. 30 mL of BMS cell suspension was distributed in individual 125 mL conical culture vented-flasks. In parallel, 89.55 mL of fresh media was mixed with 450 μL of 400 μM flg22 peptide suspension prepared in ultrapure sterile water to a final concentration of 2 μM. For the control conditions, 450 μL of ultrapure sterile water was added instead of flg22. Then, 30 mL of the media/flg22 or media/water mix was added to each flask containing 30 mL cell suspension (1:1 v/v) to a flg22 final concentration of 1 μM. Biological triplicates were performed for both flg22 treatment and control conditions. Control cells and cells treated with flg22 were grown at 24° C. with agitation (110 rpm) for 96 hours.
To determine the effect of salicylic acid (SA) on PMP production by Zea mays BMS cells, 200 mL of BMS cell culture were prepared as described above. […] 30 mL of BMS cell suspension was distributed into individual 125 mL conical culture vented-flasks. […]

[2] = tested on: Zea mays BMS cells; assay: PMP production by Zea mays BMS cell culture after elicitation (NanoFCM); type: cell-based; details: 100 μM salicylic acid, 96 hours
Method: Zea mays, Black Mexican Sweet (BMS) cells were purchased from the ABRC. BMS cells were grown in Murashige and Skoog basal medium pH 5.8, containing 4.3 g/L Murashige and Skoog Basal Salt Mixture (Sigma M5524), 2% sucrose (S0389, Millipore Sigma), 2 mg/L 2,4-dichlorophenoxyacetic acid (D7299, Millipore Sigma), 250 ug/L thiamine HCL (V-014, Millipore Sigma) and a 1× MS vitamin mix solution in ddH2O. The 1× vitamin mix solution contained niacin (N0761-100G, Millipore Sigma), pyroxidine hydrochloride (P6280-25G, Millipore Sigma), D-pantothenic acid hemicalcium salt (P5155-100G, Millipore Sigma), L-Asparagine (A4159-25G, Millipore Sigma), and myo-inositol (17508-100G, Millipore Sigma) at respective final concentrations of 1.3 mg/L, 250 μg/L, 250 μg/L, 130 mg/L, and 200 mg/L. Cells were grown in 1 L vented conical sterile flasks in dark conditions at 24° C. with agitation (110 rpm). For experiments, BMS cells were grown until cells were at a packed cell volume (PCV) of 20%. The PCV estimates cell density and is defined as the volume of cells divided by the total volume of the cell culture aliquot. The Packed Cell Volume is expressed as a percentage. The PCV was determined as follows: 5 mL of BMS cell suspension was centrifuged for 5 min at 3900 rpm, and the volume of the cell pellet was determined.
as §1, with “Then, 30 mL of the media/flg22 or media/water mix was added to each flask containing 30 mL cell suspension (1:1 v/v) to a flg22 final concentration of 1 μM. Biological triplicates were performed for both flg22 treatment and control conditions. Control cells and cells treated with flg22 were grown at 24° C. with agitation (110 rpm) for 96 hours.” left out

[3] = tested on: tomato plants grown in hydroponic culture; assay: PMP production by tomato plants grown in hydroponic culture after salicylic acid treatment; type: in vivo, Solanum lycopersicum
Method: Seeds of tomato (Solanum lycopersicum) cultivar Moneymaker were sterilized as follows: 70% ethanol for 3 min, 50% household bleach with 0.1% Triton X-100 (Sigma) for 20 min, washed three times with sterile deionized water. Sterilized seeds were germinated on moistened filter paper (Whatman®) in sterile Petri dishes sealed with medical tape (3M) and placed in a plant growth incubator (16 hr light, 23 C/21 C day/night) for seven days. Clear, square, pre-sterilized plastic containers (PhytoTech Labs) were assembled into hydroponic containers similar to what was previously described (Alatorre-Cobos et al., BMC Plant Biol., 14: Article No.: 69, 2014; FIG. 8A). Two containers were cut with sterile scalpels to assemble a support for a sterile polytetrafluoroethylene (PTFE) plastic mesh (McMaster-Carr). Plastic mesh was fixed to plastic supports with sterile staples. Small openings were cut into the plastic mesh and germinated seedlings threaded through the openings using sterile forceps. Each mesh supported five seedlings. 200 mL 1×MS growth medium (Murashige & Skoog basal salt mixture (Sigma) 4.3 g/L, sucrose 10 g/L, MES (Sigma) 0.5 g/L, pH 5.8 adjusted with KOH) was added to a whole plastic container serving as the base. Plastic support with mesh and threaded seedlings was placed into the base container. A second whole plastic container with a cut 2 cm^2 opening and sealed with medical tape was used as the lid. The two halves were sealed with medical tape and the containers transferred to a plant incubator (16 hr light, 23° C./21° C. day/night) for three weeks. […]
Culture medium (180 mL per container) was collected and centrifuged at 4,000×g for 30 min to pellet debris. […] Pellets were resuspended in 200 μL 1×PBS, pH 7.4 and analyzed using nano flow-cytometry (NanoFCM). PMP concentration (treatment: 4.06×10^11±1.41×10^11 PMP/mL (SEM); control: 5.44×10^10±2.49×10^10 PMP/mL (SEM)) and PMP size (treatment: 97±25 nm (SD); control: 82±27 nm (SD)) were determined by NanoFCM using concentration and size standards provided by the manufacturer (FIG. 8B).

| Compound | concentration compatible with cell growth ([1]; Zea mays BMS cells) [µM] | effect on production of PMPs by BMS cells in culture [2] | PMP concentration ([2]; BMS cells, average of triplicates, DMSO control 1.47×10^11 PMP/mL) | mean PMP size ([2]; BMS cells, control 87±15 nm) [nm] | concentration compatible with cell growth ([1]; Zea mays) [µM] | PMP size ([3]; 1 mM salicylic acid for three days, ± SD, control 82±27 nm) [nm] | effect on secretion of PMPs from the plant roots ([3]; hydroponically grown tomato, 1 mM salicylic acid) | PMP concentration ([3]; three-week-old tomato plants, 1 mM salicylic acid for three days, ± SEM, n=2, DMSO control 5.44×10^10±2.49×10^10) |
| --- | --- | --- | --- | --- | --- | --- | --- | --- |
| CC[C@H](C)[C@H](NC(=O)[C@H](CCC(N)=O)NC(=O)[C@H](CC(C)C)NC(=O)CNC(=O)[C@H](C)NC(=O)[C@H](C)NC(=O)[C@H](CC(=O)O)NC(=O)[C@H](CC(=O)O)NC(=O)[C@H](CCCCN)NC(=O)[C@H](C)NC(=O)[C@H](CO)NC(=O)[C@H](CC(N)=O)NC(=O)[C@@H](NC(=O)[C@H](CCCNC(=N)N)NC(=O)[C@H](CO)NC(=O)CNC(=O)[C@@H](NC(=O)[C@H](CO)NC(=O)[C@H](CC(C)C)NC(=O)[C@H](CCCNC(=N)N)NC(=O)[C@@H](N)CCC(N)=O)[C@@H](C)O)[C@@H](C)CC)C(=O)N[C@@H](C)C(=O)O [flg22] (H-QRLSTGSRINSAKDDAAGLQIA-OH) | 1 | – | – | – | – | – | – | – |
| O=C(O)c1ccccc1O [salicylic acid] | – | stimulates the production of PMPs | 1.84×10^11 PMP/mL | 86.5±15 | 100 | 97±25 | enhance secretion of PMPs from the plant roots | 4.06×10^11±1.41×10^11 PMP/mL |

— US11827897B2, “Agricultural compositions and related methods” (Flagship Pioneering Innovations VI, LLC, priority 2018, dated 2023)
